In the assay the test system is TRAIL mRNA expression. To be noted: RAW 264.7; doses as high as 10 μM or prolonged exposure.

One molecule from patent US12630550B2, “Pharmacophore for trail induction” (THE SCRIPPS RESEARCH INSTITUTE, priority 2014, dated 2026) can be followed below.

Method: RAW 264.7 cells (ATCC TIB-71) were maintained in growth medium of Dulbecco's Modified Eagle's Medium (DMEM with 4.5 g/L glucose and pyruvate, Gibco BRL, Invitrogen Corp., USA) supplemented with L-glutamine, penicillin/streptomycin, non-essential amino acids (100× stocks, Invitrogen Corp.), 10 mM HEPES, pH 7.4 (1 M stock, Invitrogen), and 10% Fetal Bovine Serum (FBS, Hyclone); (V. V. Kravchenko, R. J. Ulevitch, G. F. Kaufmann, Methods Mol. Biol. 2011, 692, 133-145).
Cells were plated in 6-well plates (Corning Costar 3506) diluted 1:5 in 3 mL growth medium, media was changed after cells had adhered. After 12 h incubation, cells were treated with described concentration of compound in DMSO, and incubated in the presence of that compound or vehicle for the described amount of time. At this time, media was removed and cells were treated with TRIzol reagent (Life Technologies), and RNA extracted via included protocol. RNA concentration determined using a Hitachi U-2000 UV-Vis Spectrophotometer and samples diluted to 12 μg/5 μL in H2O. […]

For the molecule `Cc1ccccc1CN1C2=NCCN2C(=O)C2=C1CCN(Cc1ccccc1)C2` [Compound 1, 7-Benzyl-10-(2-methylbenzyl)-2,6,7,8,9,10-hexahydroimidazo[1,2-a]pyrido[4,3-d]pyrimidin-5(3H)-one, reference compound], the “change in TRAIL mRNA expression over controls” value is on record as “No change in TRAIL mRNA expression over controls”.
